Results taken from patent EP0506748B1, “AMINO ACIDS, PEPTIDES OR DERIVATIVES THEREOF COUPLED TO FATS” (COMMONWEALTH SCIENTIFIC AND INDUSTRIAL RESEARCH ORGANISATION, priority 1989, dated 1991).

Key:
[1] = system: U937 cells; test: 3H-thymidine incorporation (mitogenic effect) in U937 cells; format: cell-based, human; conditions: for Thymidine incorporation of the U937 cells: U937 human monocyte-like histiocytic lymphoma, result in words, relative to control or to Z-Ala-TRIS-Tripalmitate
Experimental: (§1) ^3H-thymidine incorporation experiments were carried out in Linbro-Titertek microtitre plates (Flow Laboratories, Inc., U.S.A.) following the method of L. Bradley in "Selected Methods of Cellular Immunology (1980) Eds. B.B. Mishell and S.M. Shiigi; Publisher. W.H. Freeman and Co., U.S.A. pp156. The tests were carried out externally by Dr. D. Rathjen of Peptide Technology Ltd. Dee Why, N.S.W.
(§2) Cell lines tested were:- • 1. RD10; a B-cell lymphoma (obtained from the Centre for Immunology, Sydney University, Sydney, NSW. • 2. U937; a human monocyte-like3 histiocytic lymphoma (source: American Tissue Culture Collection).
(§3) RD10 cells (at a cell density 5x10^s/ml, 100 ul/well) were cultured for 20 hours at 37°C with 5% C02 in RPMI 1640 medium, supplemented with 10% Fetal Calf. Serum. Samples to be tested were mixed and sonicated with this medium at a concentration of 5000, 500, 50 and 5 ug/ml and 100 ul aliquots added to the cells. The cells were pulsed with 0.5 uCi/well of ^3H-thymidine and the plates incubated for four more hours before harvesting (Titertek Skatron harvester, Lier, Norway). Incorporated radioactivity was measured by liquid scintillation counting. All assays were performed in triplicate.

[2] = system: RD10 cells; test: 3H-thymidine incorporation (mitogenic effect) in RD10 cells; format: cell-based; conditions: RD10 B-cell lymphoma
Experimental: as §1, §2, §3

[3] = biological target: T1, trypsin (Bos taurus, UniProt P00760); test: Protease treatment: digestion with trypsin, followed by HPLC; format: biochemical; conditions: TPCK trypsin, enzyme/substrate ratio 1:50, 0.2 M ammonium hydrogen carbonate, 37°C; product Z-Leu-Arg-OH
T1 sequence (P00760 24-246): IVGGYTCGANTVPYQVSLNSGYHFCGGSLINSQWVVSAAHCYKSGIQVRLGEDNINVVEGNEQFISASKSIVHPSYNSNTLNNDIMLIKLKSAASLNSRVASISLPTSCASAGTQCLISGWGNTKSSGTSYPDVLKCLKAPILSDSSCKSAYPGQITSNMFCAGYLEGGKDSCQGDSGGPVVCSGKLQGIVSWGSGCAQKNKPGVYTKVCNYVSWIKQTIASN
Experimental: Z-Gly-TRIS and Z-Ala-TRIS were incubated with papain, and Z-Leu-Arg-TRIS with trypsin, to test that the action of proteolytic enzymes could regenerate the starting compounds Z-Gly-OH, Z-Ala-OH and Z-Leu-Arg-OH respectively.
• a) Papain. Z-Ala-TRIS in 50 mmolar phosphate buffer pH 6.5 (650 ul) , 20 mM ethylene-diamine-tetraacetic acid (100 ul) and water to 1 ml. Activated papain (5mg/ml) was added to a final enzyme/substrate ratio of 1:50. The reaction was followed by HPLC on C18 reverse phase columns and the hydrolysis product identified by co-chromatography with standards. Blanks were incubated as above using water instead of enzyme solution. • b) Trypsin. Z-Leu-Arg-TRIS was incubated at a concentration between 2 and 10 mg/ml in 0.2 M ammonium hydrogen carbonate. Freshly prepared TPCK trypsin (1 mg/ml in water) was added to the solution giving a final enzyme/substrate ratio of 1:50. Samples were incubated at 37°C and aliquots examined by reverse phase HPLC. Additional amounts of enzyme were added as required.

| Structure (SMILES) | Thymidine incorporation of the U937 cells [1] | ^3H-thymidine uptake by RD10 cells, response compared with Z-Ala-TRIS-Tripalmitate ([2]; result in words) | cytotoxic effects in U937 cells ([1]; at higher concentrations, from thymidine incorporation) | ^3H-thymidine uptake by RD10 cells, increase in cell proliferation compared to control ([2]; samples at 5000, 500, 50 and 5 ug/ml, 20 hours culture, 4 hours pulse, triplicate) | hydrolysis with trypsin [3] |
| --- | --- | --- | --- | --- | --- |
| CCCCCCCCCCCCCCCC(=O)OCC(COC(=O)CCCCCCCCCCCCCCC)(COC(=O)CCCCCCCCCCCCCCC)NC(=O)C(C)N (stereo not drawn) [Ala-TRIS-Tripalmitate, Ala-TRIS-TRIPALMITATE] | slightly diminished responses | slightly diminished response | – | – | – |
| CCCCCCCCCCCCCCCC(=O)OCC(COC(=O)CCCCCCCCCCCCCCC)(COC(=O)CCCCCCCCCCCCCCC)NC(=O)C(C)NC(=O)OCc1ccccc1 (stereo not drawn) [Z-Ala-TRIS-Tripalmitate, Z-Ala-TRIS-TRIPALMITATE] | close to control | – | slight cytotoxic effects | 3.4 fold | – |
| CC(C)C[C@H](NC(=O)OCc1ccccc1)C(=O)N[C@@H](CCCNC(=N)N)C(=O)NC(CO)(CO)CO [Z-Leu-Arg-TRIS] | – | – | – | – | slowly |
